Laboratory results reported in patent US20260192003A1, “CHELATING COMPOUNDS AND METHODS OF USES THEREOF” (THE REGENTS OF THE UNIVERSITY OF CALIFORNIA, priority 2023, published 2026).
Read-outs that look alike come from different tables or passages of the source. Marks after values point to notes of the source that are not given here.

What was measured:
[1] = Arsenazo III dye displacement, indirect kinetics of Th^4+ complexation; assay type: physicochemical; settings: for k2: 5 μM Th^4+, 25 μM Arsenazo III, 75 μM ligand (15 equiv.), 100 mM HEPES (pH 7.4), 25° C.
Description: Another important aspect of chelators for radiopharmaceutical applications is the kinetics of complexation with the radiometal of interest. A ligand must be able to bind the radioactive metal ion rapidly and completely to minimize the extent of radioactive decay before administration in vivo. […] To access the suitability of DOTHOPO and MeDOTHOPO in this context, we sought to determine the kinetics of Th^4+ complexation of these chelators in aqueous solution at 25° C. […] Following literature precedent,^35 the relative rate of metal complexation by these ligands could be studied indirectly using the dye Arsenazo III, which forms highly colored complexes with Th^4+ with a prominent absorbance band at 669 nm.^92 The addition of excess chelator to solutions of Th^4+ and Arsenazo III caused the dye to be displaced and the formation of the metal-chelator complex could be monitored by the disappearance of the absorbance features corresponding to the metal-dye compound (FIG. 4).
The aim of these experiments was to determine a second-order rate constant for the complexation reaction of Th^4+ by DOTHOPO and MeDOTHOPO. […] For comparison purposes, the second-order rate constant of complexation was calculated using the reaction of 15 equiv. of ligand relative to metal (Table 4, see SI for details). The [ThL] (L=DOTHOPO, MeDOTHOPO) complexes form rapidly in aqueous solution. The second-order halflives, calculated for 10 μM each of metal and ligand, are 30 and 18 min for DOTHOPO and MeDOTHOPO respectively. The faster complexation kinetics of MeDOTHOPO compared to DOTHOPO can likely be attributed to the increased flexibility of the ligand.

[2] = previous work, similar conditions, room temperature, after 2 months; cited from earlier work
[3] = 25° C., I = 0.1M KCl; reference 48; cited from earlier work
[4] = UV-vis spectrophotometric titration, cumulative formation constants and pM with Th^4+; assay type: physicochemical; settings: 25° C., I = 0.1M KCl; for pM, Th^4+: pM = -log[M]free, [M]tot = 10^−6M, [L]tot = 10^−5M, pH 7.4, MeDOTHOPO predicted from Table 2 log β
From the text: (§1) We next sought to evaluate the thermodynamic stabilities of the Zr^4+ and Th^4+ complexes of DOTHOPO and MeDOTHOPO by measuring their cumulative formation constants (log βmlh, see Supplementary Information for details). […] Above pH 10, the complexes dissociate to yield the free ligand and metal-hydroxide species, which could be leveraged to determine the stability constants of the Zr^4+ and Th^4+ complexes via UV-vis spectrophotometric titrations (FIGS. 2 and 3). […] The pH dependent species distribution diagrams for DOTHOPO with Zr^4+ and Th^4+ are provided in the Supporting Information. Importantly, the metal remains completely bound by the chelator below pH 10 and the major species present at pH 7.4 is the 1:1 ML complex for both metals. […] As such, the log βmlh values of MeDOTHOPO with Zr^4+ and Th^4+ were predicted to be ≥51 and ≥53, respectively, using Hyss (Table 2).
(§2) The log βmlh values reported above are pH-independent absolute stability constants. Because these ligands have differing pKa values, competition between H^+ and the metal of interest under different pH conditions will give rise to different pH-dependent conditional stability constants that are not accurately described by log βML values. To mitigate this issue and allow for direct comparison between ligands, we calculated the pM values (pM=−log[Mfree], where Mfree=solvated metal ions free of complexation by ligand or hydroxide when [L]=10^−5 M and [M]=10^−6 M)^85 for each ligand with the Fe^3+, Zr^4+, and Th^4+ (Table 3).

[5] = cited from earlier work
[6] = cited from earlier work; remark: listed apart in the source
[7] = UV-vis spectrophotometric titration, cumulative formation constants and pM with Zr^4+; assay type: physicochemical; settings: 25° C., I = 0.1M KCl; for pM, Zr^4+: pM = -log[M]free, [M]tot = 10^−6M, [L]tot = 10^−5M, pH 7.4, MeDOTHOPO predicted from Table 2 log β
From the text: as §1, §2

[8] = Spectrophotometric titration, cumulative formation constants and pM with Fe^3+; assay type: physicochemical; settings: 25° C., I = 0.1M KCl; for pM, Fe^3+: pM = -log[M]free, [M]tot = 10^−6M, [L]tot = 10^−5M, pH 7.4
Description: The affinity of these ligands for Fe3+ was explored as a representative endogenous metal that could compete with Th^4+ in vivo. The stability constants of DOTHOPO and MeDOTHOPO with Fe^3+ were determined by incremental spectrophotometric titrations, similar to those described for Zr^4+ and Th^4+ in the Supporting Information.
as §2

[9] = 25° C., I = 0.1M KCl; reference 48; cited from earlier work; remark: listed apart in the source
[10] = Potentiometric titration, protonation constants (pKa); assay type: physicochemical; settings: for ΣpKa: sum of the pKa values tentatively assigned to protonation of the HOPO units
Description: The protonation constants (pKa) of the synthesized ligands were determined potentiometrically in 0.1 M KCl. […] Based on previous studies involving ligands bearing the tetraazacyclododecane backbone,^80-82 the remaining two pKa values likely correspond to protonation of two of the amine groups present in the macrocycle (Table 1). The 1,2-HOPO donors of MeDOTHOPO are approximately 1 pKa unit more basic than those of 3,4,3-LI-(1,2-HOPO) or DOTHOPO.

[11] = 25° C., I = 0.1M KCl, data taken from Ref. 48
[12] = 25° C., I = 0.1M KCl, reference 48

Row | Structure (SMILES) | pM, Th^4+ [4] | pM, Zr^4+ [7] | pM, Fe^3+ [8] | k2 [1] [M⁻¹ s⁻¹] | pKa1 ([10]; 25° C., I = 0.1M KCl, n = 5) | pKa2 ([10]; 25° C., I = 0.1M KCl, n = 5) | pKa3 ([10]; 25° C., I = 0.1M KCl, n = 5) | pKa4 ([10]; 25° C., I = 0.1M KCl, n = 5) | ΣpKa [10] | log βmih, Fe^3+, [FeLH] [8] | log βmih, Fe^3+, [FeL]^− [8] | other results
1 | O=C(O)CN1CCN(CC(=O)O)CCN(CC(=O)O)CCN(CC(=O)O)CC1 [DOTA, 1,4,7,10-tetraazacyclododecane-N,N′,N″,N″-1,4,7,10-tetraacetic acid, reference compound] |  |  |  |  |  |  |  |  |  |  |  | complexation of Th^4+ (Arsenazo III displacement) ([1]; over 24 h at 25° C.): did not show any complexation; displacement of Arsenazo III from Th^4+ [2]: does not displace Arsenazo III
2 | Cn1ccc(C(=O)NCCN(CCNC(=O)c2ccn(C)c(=O)c2O)CCC(Cc2ccc(NC(=O)CCC(=O)O)cc2)N(CCNC(=O)c2ccn(C)c(=O)c2O)CCNC(=O)c2ccn(C)c(=O)c2O)c(O)c1=O (centres unmarked) [L1] | 39.9 | 42.9 | 25.1 |  |  |  |  |  |  |  |  | log βmih, Zr^4+, [ZrLH]^+ [3]: 50.6(2); log βmih, Zr^4+, [ZrL] [3]: 44.7(1); pKa1 [5, 11]: 2.93(35); pKa2 [5, 11]: 4.39(8)^c; pKa3 [5, 11]: 4.73(34); pKa4 [5, 11]: 5.97(14); pKa5 [5, 11]: 6.90(5); pKa6 [5, 11]: 7.74(6); pKa7 [5, 11]: 9.58(16); ΣpKa ([5]; sum of the pKa values assigned to the HOPO units, Ref. 48): 21.99; log βmih, Th^4+, [ThH−1L]^2− [6, 12]: 32.4(4); log βmih, Th^4+, [ThLH] [6, 12]: 45.9(4); log βmih, Th^4+, [ThL]^− [6, 12]: 41.7(3); log βThL ([6]; background, literature value): 41.72; log βmih, Fe^3+, [FeLH] [9]: 31.2(4); log βmih, Fe^3+, [FeL]^− [9]: 26.9(3)
3 | O=c1cccc(CN2CCN(Cc3cccc(=O)n3O)CCN(Cc3cccc(=O)n3O)CCN(Cc3cccc(=O)n3O)CC2)n1O [MeDOTHOPO, 1,4,7,10-tetraazacyclododecane-1,4,7,10-tetra(methylene)tetrakis(1-hydroxy-2-pyridinone)] | >48^b | >46^b | 27.6 | 89.2 ± 8.5 | 10.52(6) | 9.1(2) | 7.79(8) | 6.63(3) | 24.96 | 39.5(4) | 30.3(2) | pKa5 ([10]; 25° C., I = 0.1M KCl, n = 5): 6.06(3); pKa6 ([10]; 25° C., I = 0.1M KCl, n = 5): 4.41(6)
4 | O=C(c1cccc(=O)n1O)N1CCN(C(=O)c2cccc(=O)n2O)CCN(C(=O)c2cccc(=O)n2O)CCN(C(=O)c2cccc(=O)n2O)CC1 [DOTHOPO] | 35.3 | 43.7 | 28.7 | 54.2 ± 2.8 | 6.43(9) | 5.46(1) | 5.05(3) | 4.28(6) | 21.34 | 33.3(6) | 27.8(4) | log βmih, Th^4+, [ThLH]^+ [4]: 38.5(1); log βmih, Th^4+, [ThL] [4]: 34.4(1); log βmih, Zr^4+, [ZrLH]^+ [7]: 47.0(6); log βmih, Zr^4+, [ZrL] [7]: 42.9(4)
5 | O=C(O)CN(CCN(CC(=O)O)CC(=O)O)CCN(CC(=O)O)CC(=O)O [DTPA, reference compound] |  |  |  | 7.9 ± 0.9 |  |  |  |  |  |  |  | 
